Results from publication PMC12735718, “Novel Adamantane–Sclareol Hybrids Exploit ROS Vulnerability to Overcome Multidrug-Resistance in Glioblastoma Cells” (Molecules, 2025).

How the values were obtained:
[1] = system: TrxR1 protein in U87 cells; experiment: TrxR1 protein expression by flow cytometry, U87; assay type: cell-based, human; conditions: U87, 4 µM, 48 h
Method: (§1) Flow cytometry was used to assess TrxR1 and ASK1 protein expression in the U87 and U87-TxR cell lines. Cells were seeded and allowed to attach overnight before exposure to compounds 2 and 5 at final concentrations of 2 μM and 4 μM. After 48 h treatment, cells were collected by trypsinization, rinsed with PBS, and subsequently fixed in 4% PFA for 10 min at room temperature. For permeabilization, ice-cold absolute methanol was added, and the samples were maintained at −20 °C overnight. Following this step, cells were washed in PBS and incubated for 1 h in 0.5% BSA/PBS to block nonspecific binding. Pelleted cells were then resuspended in primary antibodies diluted in 0.5% BSA/PBS [(ASK1, 1:200 (ab45178, Abcam, Cambridge, UK); TrxR1, 1:500 (ab124954, Abcam, Cambridge, UK)] and incubated overnight at +4 °C. Cells were then washed in PBS and incubated for 1 h at room temperature in the dark with fluorescently labeled anti-rabbit IgG secondary antibody (Alexa Fluor 488, ab150097, Abcam, Cambridge, UK), diluted 1:1000 in 0.5% BSA/PBS. Following incubation, samples were washed, resuspended in cold PBS, and analyzed by flow cytometry. A minimum of 10,000 events per sample were acquired, and fluorescence was detected in a green fluorescence channel (525 nm). Data acquisition and processing were performed using CytExpert software (version 2.4.0.28; Beckman Coulter, Indianapolis, IN, USA).

[2] = system: TrxR1 protein in U87-TxR cells; experiment: TrxR1 protein expression by flow cytometry, U87-TxR; assay type: cell-based, human; conditions: 48 h; for protein level of TrxR1: 2 µM and 4 µM
Method: as §1

[3] = system: ASK1 protein in U87 cells; experiment: ASK1 protein expression by flow cytometry, U87; assay type: cell-based, human; conditions: U87, 2 µM and 4 µM, 48 h
Method: as §1

[4] = system: U87-TxR cells; experiment: MTT cell viability assay, U87-TxR; assay type: cell-based, human; conditions: Homo sapiens, U87-TxR; 72 h treatment, MTT, MDR cell line
Method: (§2) Cell viability was measured using the colorimetric MTT assay based on the reduction of MTT into formazan dye. Cell lines were seeded into 96-well cell culture plates (4000 cells/well) in appropriate medium. After overnight incubation, cells were treated with increasing concentrations of 1, 2, 3, 4, 5, and 6 (0.5, 1, 2, 4, and 8 µM). After 72 h treatment, MTT solution (4 mg/mL) was added and plates were incubated at 37 °C with 5% CO2 for 3 h. After incubation, formazan crystals were dissolved using 100 µL DMSO, resulting in a purple color. The absorbance was measured at 570 nm with a reference wavelength of 690 nm using an automated microplate reader (MultiskanSky, Thermo Scientific, USA). The IC50 values were determined by non-linear regression analysis in GraphPad Prism 8.0.2. software (GraphPad Software, Boston, MA, USA).

[5] = system: U87-TxR cells; experiment: Combination with PTX, MTT assay; assay type: cell-based, human; conditions: for combination index (CI) with PTX: CalcuSyn, 0.5-2 µM compound with 0.1-0.5 µM PTX, 72 h, CI < 1 synergistic
Method: as §2
The combined effects of 2 and 5 with PTX were studied in U87-TxR cells by MTT assay as previously described. In simultaneous treatments that lasted 72 h, three concentrations of 2 and 5 (0.5, 1, and 2 µM) were combined with three concentrations of PTX (0.1 μM, 0.2 μM, and 0.5 μM). Drug combination effects were evaluated using the Chou–Talalay method, which calculates the combination index (CI) value for the degree of interaction between the drugs. This method allows quantitative assessment of synergism (CI < 1), additivity (CI close to 1), or antagonism (CI > 1) across a range of dose–effect relationships. Calcusyn® version 1.1 software was used for data analysis (Biosoft, Cambridge UK). Three data points were used for each single drug in each designed experiment. The non-constant ratio combination was chosen to assess the effect of both drugs in combination. The results are presented in a fraction-affected CI graph.

[6] = system: U87 cells; experiment: MTT cell viability assay, U87; assay type: cell-based; conditions: Homo sapiens, U-87 MG, 72 h treatment
Method: as §2

[7] = system: U87-TxR cells; experiment: Cell death detection, AV/PI staining, U87-TxR; assay type: cell-based, human; conditions: 48 h; for cell death effect in MDR U87-TxR cells vs sensitive U87 cells: 4 µM, AV/PI; for percentage of early apoptotic cells vs untreated: 2 µM and 4 µM, particularly at 4 µM
Method: To evaluate the extent of cell death upon treatment with adamantane–sclareol hybrids, apoptotic, necrotic, and viable cell populations were assessed using dual staining with AV/PI. U87 and U87-TxR cells were seeded in 6-well plates at a density of 150,000 cells per well and incubated overnight. Subsequently, cells were treated with 2 and 5 (2 µM and 4 µM) for 48 h. At the end of the treatment period, cells were collected (both adherent and floating), washed, and incubated with AV/PI in binding buffer. Samples were analyzed using a CytoFLEX flow cytometer (Beckman Coulter, Indianapolis, IN, USA), with fluorescence signals detected at 525 nm (AV) and 585 nm (PI). At least 10,000 events were recorded per each condition. The percentages of viable (AV^− PI^−), early apoptotic (AV^+ PI^−), late apoptotic (AV^+ PI^+), and necrotic (AV^− PI^+) cells were calculated using CytExpert 2.4.0.28 software (Beckman Coulter, Indianapolis, IN, USA).

[8] = system: subcutaneous xenografts of U87 cells; experiment: Preliminary efficacy study, subcutaneous U87 xenografts; assay type: in vivo; conditions: 7 mg/kg, administered twice i.p.
Method: (§3) Male immunodeficient mice (Rag1^−/−), aged 4–8 weeks, were used for xenograft studies. A total of 1 × 10^6 U87 cells were injected subcutaneously into the rear axillary region to establish solid tumors. […] Maximum tolerated dose (MTD) testing for 5 was performed in 6- to 8-week-old male Rag1 mice using two animals per dose group. Compound 5 was administered i.p. at doses of 7 mg/kg, 12.5 mg/kg, 25 mg/kg, 50 mg/kg, 100 mg/kg, and 200 mg/kg. The carrier consisted of 10% (v/v) DMSO with 5% (v/v) Tween-80 and was diluted in 0.9% (w/v) NaCl. Animals were monitored for weight loss, changes in feeding or neurological signs, and any morbidity to identify the highest non-toxic dose. For efficacy studies, Rag1 mice were inoculated subcutaneously with 1 × 10^6 cells (mean starting weight ≈ 20 g); animals were then randomized into treatment groups. The compound 5 group (n = 5) received 7 mg/kg i.p. (two injections during the study period). Comparator groups included carrier control (n = 5). Compound 5 was formulated in the vehicle described above. The study was terminated when tumors in untreated mice reached approximately 11% of body weight. At termination, animals were euthanized and tumors were excised. Tumor volumes and body weights were recorded throughout the experiment and used to assess efficacy and tolerability.

[9] = Maximum tolerated dose testing; conditions: Rag1-/- (immunodeficient), mouse, in vivo, ip, male Rag1 mice; read-out: maximal tolerated dose (MTD)
Method: as §3

CC1(C)CCC[C@]2(C)[C@@H](CC[C@@](C)(O)/C=C/c3ccc(CNCCCCCCCCNCC45CC6CC(CC(C6)C4)C5)s3)[C@](C)(O)CC[C@@H]12 [Compound 2]
TrxR1 levels [1]: slight increase | protein level of TrxR1 [2]: significantly increased | ASK1 level [3]: remained unchanged | IC50 [4]: 1.96 ± 0.049 µM | Relative Reversal ([5]; 0.5 µM of the compound): 1.75 | Relative Reversal ([5]; 1.0 µM of the compound): 1.68 | Relative Reversal ([5]; 2.0 µM of the compound): 3.05 | combination index (CI) with PTX [5]: < 1 | IC50 [6]: 2.59 ± 0.068 µM | cell death effect in MDR U87-TxR cells vs sensitive U87 cells [7]: significantly better effects in MDR U87-TxR cells | percentage of early apoptotic cells vs untreated [7]: significant increase

CC1(C)CCC[C@]2(C)[C@@H](CC[C@@](C)(O)/C=C/c3ccc(CNCCCCCCCCNCC45CC6CC(CC(C6)C4)C5)o3)[C@](C)(O)CC[C@@H]12 [Compound 5]
protein level of TrxR1 [2]: significantly increased | increase in TrxR1 level ([2]; 4 µM, relative to untreated control): 69% | ASK1 level [3]: remained unchanged | IC50 [4]: 3.78 ± 0.118 µM | Body weight [8]: not adversely affected | tumor growth ([8]; over 12 days): strongly inhibits tumor growth | MTD [9]: 25 mg/kg | Relative Reversal ([5]; 0.5 µM of the compound): 0.86 | Relative Reversal ([5]; 1.0 µM of the compound): 1.85 | Relative Reversal ([5]; 2.0 µM of the compound): 1.76 | combination index (CI) with PTX [5]: < 1 | IC50 [6]: 5.13 ± 0.139 µM | cell death effect in MDR U87-TxR cells vs sensitive U87 cells [7]: significantly better effects in MDR U87-TxR cells | percentage of early apoptotic cells vs untreated [7]: significant increase | early apoptotic population (AV+ PI−) ([7]; untreated cells 4.17%, Figure S3): 32.6%
